These results are taken from ChEMBL document CHEMBL1147586, “Discovery of a dihydropyrimidine series of molecules that selectively mimic the biological actions of calcitonin” (Bioorg Med Chem Lett, 2004).

Series [1] has as its system HEK293. Description: In vitro cAMP accumulation in HEK 293 cells. The format is functional, cell-based. As to conditions: Homo sapiens.
For series [2], the system named is HEK293. Put plainly: Fold induction of cAMP accumulation in HEK 293 cells at 75u M. In kind it is functional, Homo sapiens. In general terms: Changes in cAMP serve as a functional read-out for many G protein-coupled receptors.
Series [3] relates to HEK293. Put plainly: Fold increase expressed as pmol of cAMP accumulation by the compound/basal level of cAMP produced by GLP1-7HEK cells at 25 uM; No activity. In kind it is functional, cell-based. As to conditions: Homo sapiens.
Series [4] relates to HEK293. Description: Fold increase expressed as pmol of cAMP accumulation by the compound/basal level of cAMP produced by GIP-1HEK cells at 25 uM; No activity. In kind it is functional, cell-based. As to conditions: Homo sapiens.
Series [5] has as its system HEK293. Put plainly: Fold increase expressed as pmol of cAMP accumulation by the compound/basal level of cAMP produced by CGRP1-7HEK cells at 25 uM; No activity. In kind it is functional, cell-based. As to conditions: Homo sapiens.
The test system of series [6] is HEK293. Put plainly: Fold increase expressed as pmol of cAMP accumulation by the compound/basal level of cAMP produced at 25 uM in multiplex cell based assay; 5.1/4.4. The format is functional, Homo sapiens.
The test system of series [7] is HEK293. Put plainly: Fold increase expressed as pmol of cAMP accumulation by the compound/basal level of cAMP produced by GLU-1HEK cells at 25 uM; No activity. In kind it is functional, cell-based. Conditions: Homo sapiens.
Series [8] concerns HEK293. Put plainly: Fold increase expressed as pmol of cAMP accumulation by the compound/basal level of cAMP produced by CTR-2HEK cells at 25 uM. In kind it is functional, Homo sapiens.
The subject of series [9] is HEK293. Description: Fold increase expressed as pmol of cAMP accumulation by the compound/basal level of cAMP produced by EPTH1-1HEK cells at 25 uM; No activity. Conditions: Homo sapiens. In kind it is functional, cell-based.
For another series, the system named is Rattus norvegicus. Description: Bioavailability in rat after peroral administration at 100 mpk. In kind it is functional, organism-based.
Series [10] in a line: Bioavailability in rat after intravenous administration at 2 mpk. Conditions: in vivo, read-out: Bioavailabiility. In kind it is ADME, organism-based.
Series [11] has as its system HEK293. Put plainly: Fold increase expressed as pmol of cAMP accumulation by the compound/basal level of cAMP produced at 25 uM in multiplex cell based assay; 4.5/5.7. In kind it is functional, Homo sapiens.
Series [12] concerns HEK293. Description: Fold increase expressed as pmol of cAMP accumulation by the compound/basal level of cAMP produced at 25 uM in multiplex cell based assay; 4.7/4.0. The format is functional, Homo sapiens.
Series [13] concerns HEK293. Description: Fold increase expressed as pmol of cAMP accumulation by the compound/basal level of cAMP produced at 25 uM in multiplex cell based assay; 4.7/3.2. In kind it is functional, Homo sapiens.
A short description of series [14]: Bioavailability in rat after peroral administration at 30 mpk. Conditions: in vivo, po, 30 mg/kg, read-out: Bioavailabiility. In kind it is ADME, organism-based.
The test system of series [15] is monkey. Put plainly: Bioavailability in monkey after intravenous administration at 1 mpk. As to conditions: in vivo, read-out: Bioavailabiility.
The subject of series [16] is monkey. Put plainly: Bioavailability in monkey after peroral administration at 10 mpk. As to conditions: in vivo, po, 10 mg/kg, read-out: Bioavailabiility.
A short description of series [17]: Bioavailability in rat after intravenous administration at 1 mpk. The format is ADME, organism-based. Conditions: in vivo, read-out: Bioavailabiility.

Activity calls are given as the source filed them. The calls are words filed in the database; no cut-off is given here.

As for `CCCC1=C(C(=O)OCc2ccc(C(=O)NCCCN3CCCCC3)cc2)C(c2cccc(C)c2)NC(=O)N1` (centres undefined), the EC50 in the series with HEK293 [1] was found to be 1.9 µM. This molecule also returned a Fold-induction in the series on HEK293 [2] of 52.

Regarding `CCCC1=C(C(=O)OCc2ccc(C(=O)N(C)C)cc2)C(c2cccc(C)c2)NC(=O)N1` (centres undefined), in the series on HEK293 [1], the EC50 was determined as 3.4 µM. In the series on HEK293 [2], this molecule showed a Fold-induction of 40.

Consider `CCCC1=C(C(=O)OCc2ccc(C(=O)NCCN3CCOCC3)cc2)C(c2cccc(C)c2)NC(=O)N1` (centres undefined), for which, in the series on HEK293 [1], the EC50 came to 4.3 µM. This molecule had a Fold-induction in the series with HEK293 [2] of 50.

`CCCC1=C(C(=O)OCC)C(c2cc(C)cc(C)c2)NC(=O)N1` (centres undefined) yielded an EC50 with HEK293 [1] of 9.5 µM. In the series with HEK293 [2], this molecule registered a Fold-induction of 34.

Take `CC1=C(C(=O)OCC(F)(F)C(F)(F)F)C(c2ccccc2)NC(=O)N1` (centres undefined): the Fold-induction entry in the series on HEK293 [3], in the series on HEK293 [4], in the series on HEK293 [5], in the series with HEK293 [7] and with HEK293 [9] was “inactive” each time. For the same molecule, the Fold-induction is 5.1 in the series with HEK293 [6] and 9 with HEK293 [8].

Take `CCCC1=C(C(=O)OCc2ccc(C(=O)N(C)CCN3CCCCC3)cc2)C(c2cccc(C)c2)NC(=O)N1` (centres undefined): the response in the series with HEK293 [1] was half-maximal at 4.4 µM (EC50). This molecule had a Fold-induction with HEK293 [2] of 55.

On to `CCCC1=C(C(=O)OCc2ccc(C(=O)OC)cc2)C(c2cccc(C)c2)NC(=O)N1` (centres undefined), for which the EC50 in the series with HEK293 [1] was 1 µM. In the series on HEK293 [2], the Fold-induction is given as 42.

`CCCC1=C(C(=O)OCC)C(c2cccc(C)c2)NC(=O)N1` (centres undefined) gave an EC50 in the series with HEK293 [1] of 7.5 µM. Further, the bioavailability (in the series with Rattus norvegicus; in series [10]) was 2% throughout. The molecule also gave a Fold-induction in the series with HEK293 [2] of 35.

In the case of `CC1=C(C(=O)OC2CCCC2C)C(c2ccccc2)NC(=O)N1` (centres undefined), the Fold-induction result with HEK293 [3], in the series with HEK293 [4], in the series with HEK293 [5], in the series with HEK293 [7] and with HEK293 [9] was “inactive” each time. Further, the Fold-induction in the series on HEK293 [8] was 8; with HEK293 [11] it was 4.5.

Consider `CCC1=C([N+](=O)[O-])C(c2ccc3c(c2)OCO3)NC(=O)N1` (centres undefined), for which the Fold-induction result with HEK293 [3], in the series on HEK293 [4], in the series on HEK293 [5], with HEK293 [7] and with HEK293 [9] was “inactive” in each case. Also, the Fold-induction with HEK293 [8] stood at 12; in the series with HEK293 [12] it was 4.7.

With `CCCC1=C(C(=O)OCc2ccc(C(=O)NCCCN3CCN(C)CC3)cc2)C(c2cccc(C)c2)NC(=O)N1` (centres undefined), the EC50 with HEK293 [1] was 4.3 µM. Besides, in the series with HEK293 [2], the Fold-induction is 55.

In turn, `CCCC1=C(C(=O)OCc2ccc(C(=O)O)cc2)C(c2cccc(C)c2)NC(=O)N1` (centres undefined) came in with an EC50 with HEK293 [1] of 3.4 µM. In the series on HEK293 [2], this molecule gave a Fold-induction of 61.

For `CCCC1=C(C(=O)OCc2ccc(C(=O)NCCCN(C)C)cc2)C(c2cccc(C)c2)NC(=O)N1` (centres undefined), the EC50 with HEK293 [1] was 1.4 µM. Besides, the Fold-induction in the series with HEK293 [2] is 55.

The molecule `CCCC1=C(C(=O)OCC)C(c2cccc(Cl)c2)NC(=O)N1` (centres undefined) showed an EC50 in the series on HEK293 [1] of 6.8 µM. The molecule further gave a Fold-induction with HEK293 [2] of 21.

As for `C=CCOC(=O)C1=C(C)NC(=O)NC1c1ccc2c(c1)OCO2` (centres undefined), the Fold-induction entry in the series with HEK293 [3], with HEK293 [4], in the series with HEK293 [5], in the series on HEK293 [7] and in the series with HEK293 [9] was “inactive” each time. The Fold-induction came out at 8 in the series with HEK293 [8] and 4.7 in the series with HEK293 [13].

In turn, `CC(C)C[C@H](NC(=O)[C@H](CCCCN)NC(=O)CNC(=O)[C@H](CC(C)C)NC(=O)[C@@H](NC(=O)[C@@H]1CSSC[C@H](N)C(=O)N[C@@H](CO)C(=O)N[C@@H](CC(N)=O)C(=O)N[C@@H](CC(C)C)C(=O)N[C@@H](CO)C(=O)N[C@@H]([C@@H](C)O)C(=O)N1)C(C)C)C(=O)N[C@@H](CO)C(=O)N[C@@H](CCC(N)=O)C(=O)N[C@@H](CCC(=O)O)C(=O)N[C@@H](CC(C)C)C(=O)N[C@@H](Cc1c[nH]cn1)C(=O)N[C@@H](CCCCN)C(=O)N[C@@H](CC(C)C)C(=O)N[C@@H](CCC(N)=O)C(=O)N[C@H](C(=O)N[C@@H](Cc1ccc(O)cc1)C(=O)N1CCC[C@H]1C(=O)N[C@@H](CCCNC(=N)N)C(=O)N[C@H](C(=O)N[C@@H](CC(N)=O)C(=O)N[C@H](C(=O)NCC(=O)N[C@@H](CO)C(=O)NCC(=O)N[C@H](C(=O)N1CCC[C@H]1C(N)=O)[C@@H](C)O)[C@@H](C)O)[C@@H](C)O)[C@@H](C)O` [CALCITONIN SALMON] gave an EC50 with HEK293 [1] of 0.003 µM. This molecule registered a Fold-induction in the series on HEK293 [2] of 40.

In the case of `CCCC1=C(C(=O)OCc2ccc(C(=O)NCCN3CCCCC3)cc2)C(c2cccc(C)c2)NC(=O)N1` (centres undefined), the bioavailability in series [14] worked out at 65%; in the series with monkey [15], 13%; with monkey [16], 13%; in [17] it was 65%. In addition, the EC50 with HEK293 [1] stood at 1.3 µM. For the same molecule, the Fold-induction in the series with HEK293 [2] was 51.

In turn, `CCCCCC1=C(C(=O)OCC)C(c2cccc(C)c2)NC(=O)N1` (centres undefined) displayed a Fold-induction in the series on HEK293 [2] of 31.

For the molecule `CCCC1=C(C(=O)OCc2ccccc2)C(c2cccc(C)c2)NC(=O)N1` (centres undefined), the response in the series with HEK293 [1] was half-maximal at 5.2 µM (EC50). Besides, in the series on HEK293 [2], the Fold-induction came to 36.

`CC1=C(C(=O)OCc2ccccc2)C(c2ccccc2)NC(=O)N1` (centres undefined) had an EC50 in the series with HEK293 [1] of more than 20 µM. In the series with HEK293 [2], the Fold-induction is reported as 17.

In the case of `COc1ccc(COC(=O)C2=C(C(C)C)NC(=O)NC2c2cccc(C)c2)cc1` (centres undefined), the EC50 in the series with HEK293 [1] came to 5.8 µM. In the series with HEK293 [2], this molecule registered a Fold-induction of 33.

`CC1=C(C(=O)OCc2ccccc2)C(c2cccc(C)c2)NC(=O)N1` (centres undefined) showed an EC50 in the series with HEK293 [1] of 15 µM. Further, in the series with HEK293 [2], the Fold-induction worked out at 23.

By EC50 is commonly meant the concentration needed to bring the measured effect to its halfway point.
